Laboratory results reported in patent US8298991B2, “Method for controlling undesired mimosoideae vegetation” (E I du Pont de Nemours and Company, priority 2008, dated 2012).

How the values were obtained:
[1] = test system: huisache (Acacia farnesiana); assay: Test A: field study, control of a natural stand of huisache; assay type: in vivo; conditions: for % Defoliation 62 DAA: 62 days after application, vs control plot, foliar spray with 1% methylated seed oil, g ai/ha: Compound 1 250, fosamine-ammonium 6688, imazapyr (a.e.) 280, metsulfuron-methyl 42, alone or combined; for % Control 229 DAA: 229 days after application; for % Control 229 DAA / % Control 543 DAA / % Control 656 DAA / % Control 745 DAA: % of trees with no green foliage or regrowth, g ai/ha: Compound 1 250, fosamine-ammonium 6688, imazapyr 280, metsulfuron-methyl 42; for % Control 543 DAA: 543 days after application; for % Control 656 DAA: 656 days after application; for % Control 745 DAA: 745 days after application
Protocol: A field study was conducted to evaluate the efficacy of 250 g/ha of Compound 1, 6.7 kg/ha of fosamine-ammonium (i.e. ammonium salt of fosamine), 280 g/ha of imazapyr (provided in the form of the isopropylammonium salt of imazapyr) and 42 g/ha of metsulfuron-methyl, separately and in combination, for controlling a natural stand of huisache (Acacia farnesiana) on a ranch in southeastern Texas. Compound 1 was in the form of a wettable granule formulation containing 80% by weight of Compound 1. Fosamine-ammonium was provided by KRENITE® S, which is a water-soluble liquid formulation containing 41.5% of fosamine-ammonium. Imazapyr was provided by ARSENAL®, which is a water-soluble liquid formulation containing 28.7% of imazapyr-isopropylammonium (equivalent to 22.6% of imazapyr, i.e. imazapyr acid equivalent). Metsulfuron-methyl was provided by ESCORT® XP, which is a wettable granule formulation containing 60% of metsulfuron-methyl.
The trial design was a large block, single replicate field study using rectangular test plots measuring 12.8 m by 22.9 m. The huisache trees in the test plots averaged 2.4 m tall and were estimated to be approximately 20 years old. The formulated herbicides were diluted with water and 1% by volume of methylated seed oil was added to provide about 27.4 L of spray mixture. The treatments were applied in early autumn using a high-volume handgun sprayer projecting the spray mixture upward and across a plot in a slow back and forth motion while traversing the plot lengthwise. This produced a rainfall-like spray covering both the huisache trees and ground between trees in the plots. The volume of spray mixture used (corresponding to 935 L/ha) was sufficient to thoroughly wet the foliage of the huisache trees with relatively little drip or run off under the trees.
The effects of the herbicide treatments were visually evaluated. At 62 days after application (DAA), the percentage of defoliation in comparison to a control plot was observed. Then at 229, 543, 656 and 745 days after application % control was calculated based on the percentage of trees showing no green foliage or regrowth.

[2] = test system: honey mesquite (Prosopis glandulosa); assay: Test B: field study, control of natural stands of honey mesquite; assay type: in vivo; conditions: for % Control Site 1 Observed: Site 1, 12 months after application, 94 L/ha; for % Control Site 1 Observed / % Control Site 2 Observed: % dead trees, g ai/ha: Compound 1 125, triclopyr (a.e., as butotyl ester) 280; for % Control Site 2 Observed: Site 2, 10 months after application, 140 L/ha
Protocol: A field study was conducted to evaluate the efficacy of 125 g/ha of Compound 1 and 280 g/ha of triclopyr (in the form of the butoxyethyl ester of triclopyr, i.e. triclopyr-butotyl), separately and in combination, for controlling natural stands of honey mesquite (Prosopis glandulosa) on ranches in western Texas. Compound 1 was in the form of an 80% wettable granule formulation. Triclopyr was provided by GARLON® 4 or REMEDY®, which are emulsifiable concentrate formulations containing 44.3% or 61.6% of triclopyr-butotyl, respectively.
The trial design was a large block, single replicate test. Each test used rectangular test plots measuring 3 m by 9 m and incorporating at least 10 mesquite plants per plot. The formulated herbicides were diluted with water, and 1% by volume of methylated seed oil was added, to provide volumes of spray mixtures corresponding to a rate of 94 L/ha at Site 1 and 140 L/ha at Site 2. The treatments were applied using flat fan nozzles on an elevated spray boom moved across the plots by an all-terrain vehicle or small tractor. The elevated spray boom and relatively low spray volumes simulated aerial (e.g., helicopter or fixed wing aircraft) applications.
In each plot 10 mesquite trees were identified with a metal tag for evaluation. The effects of the herbicide treatments were evaluated 12 months after application at Site 1 and 10 months after application at Site 2. Visual evaluations were used to rate the herbicidal effect of the various treatments. A tree was considered alive if any foliage was present within the tree canopy area or if any new growth (i.e. sprouts) emerged from the base of the tree.
Expected results were calculated using the Colby Equation. Colby's equation (S. R. Colby, “Calculating Synergistic and Antagonistic Responses of Herbicide Combinations,” Weeds, 15(1), pp 20-22 (1967)) calculates the expected additive effect of herbicidal mixtures, and for two active ingredients is of the form: Pa+b=Pa+Pb−(PaPb/100) wherein • Pa+b is the percentage effect of the mixture expected from additive contribution of the individual components, • Pa is the observed percentage effect of the first active ingredient at the same use rate as in the mixture, and • Pb is the observed percentage effect of the second active ingredient at the same use rate as in the mixture.

CC(C)C1(C)N=C(c2ncccc2C(=O)O)NC1=O (racemic) [Imazapyr, (±)-2-[4,5-dihydro-4-methyl-4-(1-methylethyl)-5-oxo-1H-imidazol-2-yl]-3-pyridinecarboxylic acid]
% Defoliation 62 DAA [1]: 70%
% Control 229 DAA [1]: 9%
% Control 543 DAA [1]: 0%
% Control 656 DAA [1]: 0%
% Control 745 DAA [1]: 0%

COC(=O)c1nc(C2CC2)nc(N)c1Cl [Compound 1, methyl 6-amino-5-chloro-2-cyclopropyl-4-pyrimidine-carboxylate]
% Defoliation 62 DAA [1]: 100%
% Control 229 DAA [1]: 91%
% Control 745 DAA [1]: 33%
% Control Site 1 Observed [2]: 60%
% Control Site 2 Observed [2]: 60%
long-term control of honey mesquite (text summary over Sites 1 and 2) ([2]; both sites, Compound 1 125 g/ha, triclopyr 280 g/ha): 60%

CCOP(=O)(O)C(N)=O [Fosamine, ethyl hydrogen (aminocarbonyl)phosphonate]
% Defoliation 62 DAA [1]: 75%
% Control 229 DAA [1]: 0%
% Control 543 DAA [1]: 0%
% Control 656 DAA [1]: 0%
% Control 745 DAA [1]: 0%

COC(=O)c1ccccc1S(=O)(=O)NC(=O)Nc1nc(C)nc(OC)n1 [Metsulfuron-methyl, methyl 2-[[[[(4-methoxy-6-methyl-1,3,5-triazin-2-yl)amino]carbonyl]amino]sulfonyl]benzoate]
% Defoliation 62 DAA [1]: 85%
% Control 229 DAA [1]: 11%
% Control 543 DAA [1]: 0%
% Control 656 DAA [1]: 0%
% Control 745 DAA [1]: 0%

O=C(O)COc1nc(Cl)c(Cl)cc1Cl [Triclopyr, [(3,5,6-trichloro-2-pyridyl)oxy]acetic acid]
% Control Site 1 Observed [2]: 0%
% Control Site 2 Observed [2]: 30%
